{"source": "patent US6787560B2", "about": "“Serotonin reuptake inhibitor” (Sumitomo Pharmaceuticals Company Limited, priority 2000, dated 2004)"}
{"biological_target": "T1, serotonin 1A receptors ([3H]8-OH-DPAT binding, hippocampus membrane preparation) (Rattus norvegicus, UniProt P19327)", "T1 construct": "146 μl of the hippocampus membrane preparation (80 μg/tube in terms of protein); from tissue; host or cells: male rat hippocampus membrane preparation", "T1 sequence (P19327 1-422)": "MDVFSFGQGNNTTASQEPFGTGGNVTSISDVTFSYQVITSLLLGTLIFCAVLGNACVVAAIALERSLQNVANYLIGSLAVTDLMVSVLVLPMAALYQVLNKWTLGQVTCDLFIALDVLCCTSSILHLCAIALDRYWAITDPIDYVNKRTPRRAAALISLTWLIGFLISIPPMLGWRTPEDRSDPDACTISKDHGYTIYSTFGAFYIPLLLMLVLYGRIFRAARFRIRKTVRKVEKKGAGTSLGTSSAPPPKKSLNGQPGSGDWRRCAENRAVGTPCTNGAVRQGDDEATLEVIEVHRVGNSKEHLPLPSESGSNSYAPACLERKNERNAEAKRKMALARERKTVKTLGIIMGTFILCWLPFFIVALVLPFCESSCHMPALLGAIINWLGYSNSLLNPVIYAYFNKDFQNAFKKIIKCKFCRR", "test": "[3H]8-OH-DPAT binding test (Test Example 2)", "conditions": "2 nM [3H]8-OH-DPAT, test agent concentration not given, read-out: Rate of inhibition of [^3H] 8-OH-DPAT binding (%)", "experimental": "[^3H]18-OH-DPAT Binding Test\nThe test was carried out according to the method^2) of Hall M. D. et al. After pre-breeding for about 1 week, a male rat was decapitated and the brain was immediately removed. The hippocampus was separated from the brain on ice, and 50 mM Tris-HCl (pH=7.4) was added to the hippocampus in an amount of 40 times the wet weight of the hippocampus, followed by homogenization (3 min, 1 stroke/min) in an ice bath by the use of a Teflon-glass homogenizer. Then, the homogenate was centrifuged (4° C.) at 40,000×g for 10 minutes. The resulting precipitate was dispersed in an ice-cooled buffer solution (50 mM Tris-HCl (pH=7.4)) by the use of Hiscotron, followed by centrifugation (4° C.) at 40,000×g for 10 minutes. Moreover, the resulting precipitate was re-suspended and the washing procedure was repeated once. The precipitate thus obtained was dispersed in an ice-cooled buffer solution (50 mM Tris-HCl (pH=7.4)) by the use of Hiscotron™, and the resulting dispersion was incubated at 37° C. for 1 hour and then centrifuged (4° C.) at 40,000×g for 10 minutes. Furthermore, the resulting precipitate was re-suspended and the washing procedure was repeated once. The resulting membrane preparation was suspended in the same buffer solution as described above, and then subjected to cryopreservation at −80° C.\nMeasurement was carried out by using a liquid for reaction obtained by adding 50 μl of [^3H]8-OH-DPAT (final concentration: 2 nM), 4 μl of a solution of a test agent and 146 μl of the hippocampus membrane preparation (80 μg/tube in terms of protein) to a buffer solution containing 50 mM Tris-HCl (pH=7.4) and 4 mM CaCl2 to make a total volume of 200 μl. The liquid for reaction was allowed to react at room temperature for 30 minutes and then rapidly filtered by suction at a low pressure through glass fiber filter paper. The glass fiber filter paper was washed twice with 250 μl of a buffer solution and then added to a glass vial containing 4 ml of ACS-II (Amersham), and the radioactivity bound to receptors and remaining on the filter paper was measured with a liquid scintillation counter. The amount of [^3H]8-OH-DPAT bound in the presence of 1 μM of 8-OH-DPAT was taken as the amount of [^3H]8-OH-DPAT non-specifically bound.\n(§1) Rate of binding inhibition was calculated by the following equation:\nRate of binding inhibition (%)=100−100×{[amount of [^3H]8-OH-DPAT bound in the presence of test substance]−[amount of [^3H]8-OH-DPAT bound in the presence of 1 μM 8-OH-DPAT]/[amount of [^3H]8-OH-DPAT bound in the absence of test substance]−[amount of [^3H]8-OH-DPAT bound in the presence of 1 μM 8-OH-DPAT]}", "units": {"inhibition": "%"}}
{"smiles": "COc1ccc(Br)c(CC2CCN(Cc3cccc(C(=O)NCc4ccccc4)c3)CC2)c1", "note": "[Example 12]", "inhibition": 98}
{"smiles": "NC(=O)c1cccc(CCN2CCC(Cc3ccccc3Br)CC2)c1", "note": "[Example 49]", "inhibition": 47}
{"smiles": "COc1ccc(Br)c(CC2CCN(CCc3cccnc3)CC2)c1", "note": "[Example 103, N-(2-(3-pyridyl)ethyl)-4-(2-bromo-5-methoxybenzyl)piperidine]", "inhibition": 94}
{"smiles": "CCOc1ccc(Br)c(CC2CCN(CCc3ccccc3Cl)CC2)c1", "note": "[Example 169, N-(2-(2-chlorophenyl)ethyl)-4-(2-bromo-5-ethoxybenzyl)piperidine]", "inhibition": 74}
{"smiles": "COc1ccc(Br)c(CC2CCN(CCc3ccccc3)CC2)c1", "note": "[Example 11, N-phenethyl-4-(2-bromo-5-methoxybenzyl)-piperidine]", "inhibition": 96}
{"smiles": "COc1ccc(Br)c(CC2CCN(CCc3cccc4ccccc34)CC2)c1", "note": "[Example 54, N-(2-(1-naphthyl)ethyl)-4-(2-bromo-5-methoxybenzyl)piperidine]", "inhibition": 92}
{"smiles": "COc1ccc(Cl)c(CC2CCN(CCCN3C(=O)c4ccccc4C3=O)CC2)c1", "note": "[Example 82, N-(3-phthaliminopropyl)-4-(2-chloro-5-methoxybenzyl)piperidine]", "inhibition": 72}
{"biological_target": "T2, [3H]citalopram binding site, cerebral cortex membrane preparation (serotonin reuptake) (Rattus norvegicus, UniProt P31652)", "T2 construct": "146 μl of the cerebral cortex membrane preparation (72 μg/well in terms of protein); from tissue; host or cells: male rat cerebral cortex membrane preparation", "T2 sequence (P31652 whole entry)": "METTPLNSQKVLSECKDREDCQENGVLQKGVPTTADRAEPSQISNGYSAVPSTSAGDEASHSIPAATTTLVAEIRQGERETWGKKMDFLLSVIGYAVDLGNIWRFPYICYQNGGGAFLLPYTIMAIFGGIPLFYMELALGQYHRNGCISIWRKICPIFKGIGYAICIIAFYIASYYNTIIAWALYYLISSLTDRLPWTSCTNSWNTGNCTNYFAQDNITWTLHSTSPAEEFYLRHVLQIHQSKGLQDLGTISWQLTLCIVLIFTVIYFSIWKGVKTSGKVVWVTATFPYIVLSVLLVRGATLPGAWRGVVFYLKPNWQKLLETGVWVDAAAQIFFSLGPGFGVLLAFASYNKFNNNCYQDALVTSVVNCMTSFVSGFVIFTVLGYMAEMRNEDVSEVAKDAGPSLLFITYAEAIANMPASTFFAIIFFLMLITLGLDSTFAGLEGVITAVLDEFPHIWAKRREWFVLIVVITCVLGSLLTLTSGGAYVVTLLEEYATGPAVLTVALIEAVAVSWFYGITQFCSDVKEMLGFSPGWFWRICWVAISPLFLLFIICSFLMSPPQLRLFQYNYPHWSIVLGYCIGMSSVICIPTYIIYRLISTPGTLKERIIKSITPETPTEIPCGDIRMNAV", "test": "Screening test using [3H]citalopram binding (Test Example 1)", "conditions": "0.7 nM [3H]citalopram, test agent concentration not given, read-out: Rate of inhibition of [^3H] citalopram binding (%)", "experimental": "Screening Test Using [^3H[Citalopram Binding\n1-1. Preparation of a Cerebral Cortex Membrane Preparation\nThe membrane preparation was prepared according to the method^1) of D'amato et al. In detail, after a male rat was decapitated, the whole brain was immediately removed and the cerebral cortex was separated therefrom under ice-cooling. A buffer solution (50 mM Tris-HCl (pH=7.4), 120 mM NaCl, 5 mM KCl) was added to the cerebral cortex in an amount of 2.5 times the wet weight of the cerebral cortex, followed by homogenization in an ice bath by the use of a Teflon-glass homogenizer. The homogenate was centrifuged at 4° C. and 45,000×g for 10 minutes, and the resulting precipitate was dispersed in an ice-cooled buffer solution (50 mM Tris-HCl (pH=7.4), 120 mM NaCl, 5 mM KCl) by the use of Hiscotron™, followed by centrifugation at 4° C. and 45,000×g for 10 minutes. The resulting precipitate was re-suspended and the washing procedure was repeated. The membrane preparation thus obtained was suspended in the same buffer solution as described above, and then subjected to cryopreservation at −80° C.\n1-2 Receptor Binding Experiment\n[^3H]citalopram binding was measured according to the method^1) of D'amato et al. In detail, 50 μl of a dilution (final concentration: 0.7 nM) of [^3H]citalopram with 50 mM Tris-HCl (pH=7.4) buffer containing 120 mM NaCl and 5 mM KCl, 146 μl of the cerebral cortex membrane preparation (72 μg/well in terms of protein) and 4 μl of a solution of a test agent in dimethyl sulfoxide were mixed to make a total volume of 200 μl. The resulting liquid was allowed to react at room temperature for 60 minutes and then rapidly filtered by suction at a low pressure through glass fiber filter paper. The glass fiber filter paper was washed twice with 250 μl of the same buffer solution as above and then transferred to a glass vial containing 4 ml of ACS-II (Amersham), and the radio-activity remaining on the filter paper was measured with a liquid scintillation counter.\nThe amount of [^3H]citalopram bound in the presence of 100 μM 5-HT was taken as the amount of [^3H]citalopram non-specifically bound.\nas §1\nRate of binding inhibition (%)=100−100×{[amount of [^3H]citalopram bound in the presence of test agent]−[amount of [^3H]citalopram bound in the presence of 100 μM 5-HT]/[amount of [^3H]citalopram bound in the absence of test agent]−[amount of [^3H]citalopram bound in the presence of 100 μM 5-HT]}", "units": {"inhibition": "%"}}
{"smiles": "COc1ccc(Br)c(CC2CCN(Cc3cccc(C(=O)NCc4ccccc4)c3)CC2)c1", "note": "[Example 12]", "inhibition": 100}
{"smiles": "NC(=O)c1cccc(CCN2CCC(Cc3ccccc3Br)CC2)c1", "note": "[Example 49]", "inhibition": 98}
{"smiles": "COc1ccc(Br)c(CC2CCN(CCc3cccnc3)CC2)c1", "note": "[Example 103, N-(2-(3-pyridyl)ethyl)-4-(2-bromo-5-methoxybenzyl)piperidine]", "inhibition": 91}
{"smiles": "CCOc1ccc(Br)c(CC2CCN(CCc3ccccc3Cl)CC2)c1", "note": "[Example 169, N-(2-(2-chlorophenyl)ethyl)-4-(2-bromo-5-ethoxybenzyl)piperidine]", "inhibition": 86}
{"smiles": "COc1ccc(Br)c(CC2CCN(CCc3ccccc3)CC2)c1", "note": "[Example 11, N-phenethyl-4-(2-bromo-5-methoxybenzyl)-piperidine]", "inhibition": 82}
{"smiles": "COc1ccc(Br)c(CC2CCN(CCc3cccc4ccccc34)CC2)c1", "note": "[Example 54, N-(2-(1-naphthyl)ethyl)-4-(2-bromo-5-methoxybenzyl)piperidine]", "inhibition": 73}
{"smiles": "COc1ccc(Cl)c(CC2CCN(CCCN3C(=O)c4ccccc4C3=O)CC2)c1", "note": "[Example 82, N-(3-phthaliminopropyl)-4-(2-chloro-5-methoxybenzyl)piperidine]", "inhibition": 100}
{"biological_target": "T3, human 5-HT1A receptors (human 5-HT1A/CHO membrane preparation) (Homo sapiens, UniProt P08908)", "T3 construct": "expressed in transfected cells; host or cells: CHO cells (human 5-HT1A/CHO), Geneticin-selected", "T3 sequence (P08908 1-422)": "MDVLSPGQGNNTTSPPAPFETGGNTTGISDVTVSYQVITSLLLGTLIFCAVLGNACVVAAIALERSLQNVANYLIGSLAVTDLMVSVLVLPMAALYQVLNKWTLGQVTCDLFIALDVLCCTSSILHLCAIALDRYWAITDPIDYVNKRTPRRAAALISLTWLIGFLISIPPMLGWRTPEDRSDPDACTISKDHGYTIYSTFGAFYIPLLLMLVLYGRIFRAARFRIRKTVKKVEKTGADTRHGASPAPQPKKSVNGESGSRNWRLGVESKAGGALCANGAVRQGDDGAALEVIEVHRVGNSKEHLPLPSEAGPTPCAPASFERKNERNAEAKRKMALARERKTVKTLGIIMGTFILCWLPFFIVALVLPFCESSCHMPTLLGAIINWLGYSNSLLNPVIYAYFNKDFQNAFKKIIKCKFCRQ", "test": "5-HT1A receptor actuation test, [35S]GTPγS binding (Test Example 3)", "assay_type": "biochemical", "conditions": "10^-5 M test substance; rate of increase in [35S]GTPγS binding, increase due to 10 μM 5-HT taken as 100%", "experimental": "5-HT1A Receptor Actuation Test\n3-1. Cells Used and Preparation of a Membrane Preparation\nHuman ^5-HT1A receptor expression CHO cells (human 5-HT1A/CHO) were used in the experiment. The cells were cultured on F12 containing 10% FCS, 500 μg/ml Geneticin and 100 U/ml penicillin-100 μg/ml streptomycin (all available from GIBCO) in a 5% CO2 incubator, and a membrane preparation was prepared according to the method^3) of A. Newman et al. In detail, cells peeled and collected by the use of buffer solution A (20 mM HEPES, 5 mM MgSO4) were homogenized in a Teflon homogenizer, followed by centrifugation (50,000×g, 30 min, 4° C.). The precipitate was re-suspended in a suitable volume of buffer solution A and stored at −80° C. until use The amount of proteins in the membrane preparation was determined with Dye Reagent Concentrate (BIO-RAD) by using Albumin Bovine (SIGMA) as a standard substance.\nBinding of [^35S]GTPγS to human 5-HT1A receptors was measured by the use of the above-mentioned membrane preparation according to the method^3) of Newman et al. In detail, 0.05 nM of [^35S]GTPγS (E. I. du Pont de Nemours & Co. NEN) and a definite amount (about 50 μg/tube) of the membrane preparation were added to buffer solution B (20 mM HEPES, 3 mM MgSO4, 3 μM GDP, 1 mM DTT) containing 10^−5M of each test substance, and the resulting liquid for reaction having a total volume of 1 ml was incubated at 22° C. for 20 minutes. After completion of the reaction, the reaction mixture was diluted with 5 ml of ice-cooled buffer solution B, and the dilution was rapidly filtered by suction at a low pressure through glass fiber filter paper (Whatman, GF/B) to terminate the reaction. The glass fiber filter paper was washed twice with the same buffer solution as above and placed in a vial, and 4 ml of ACS-II was added thereto. The radioactivity of [^35S]GTPγS on the filter paper was measured with a liquid scintillation counter. The amount of [^35S]GTPγS specifically bound was calculated from the amount of [^35S]GTPγS non-specifically bound in the presence of 10 μM of GTPγS (Sigma). The 5-HTLA receptor actuating activity of each test substance was expressed in terms of the rate of increase in [^35S]GTPγS binding by taking an increase in [^35S]GTPγS binding due to 10 μM of 5-HT as 100%.", "units": {"5-HT14 receptor actuating activity (%)": "%"}}
{"smiles": "COc1ccc(Br)c(CC2CCN(Cc3cccc(C(=O)NCc4ccccc4)c3)CC2)c1", "note": "[Example 12]", "5-HT14 receptor actuating activity (%)": 19}
{"smiles": "NC(=O)c1cccc(CCN2CCC(Cc3ccccc3Br)CC2)c1", "note": "[Example 49]", "5-HT14 receptor actuating activity (%)": 48}
{"smiles": "COc1ccc(Br)c(CC2CCN(CCc3cccnc3)CC2)c1", "note": "[Example 103, N-(2-(3-pyridyl)ethyl)-4-(2-bromo-5-methoxybenzyl)piperidine]", "5-HT14 receptor actuating activity (%)": 52}
{"smiles": "CCOc1ccc(Br)c(CC2CCN(CCc3ccccc3Cl)CC2)c1", "note": "[Example 169, N-(2-(2-chlorophenyl)ethyl)-4-(2-bromo-5-ethoxybenzyl)piperidine]", "5-HT14 receptor actuating activity (%)": 48}
{"smiles": "COc1ccc(Br)c(CC2CCN(CCc3ccccc3)CC2)c1", "note": "[Example 11, N-phenethyl-4-(2-bromo-5-methoxybenzyl)-piperidine]", "5-HT14 receptor actuating activity (%)": 32}
{"smiles": "COc1ccc(Cl)c(CC2CCN(CCCN3C(=O)c4ccccc4C3=O)CC2)c1", "note": "[Example 82, N-(3-phthaliminopropyl)-4-(2-chloro-5-methoxybenzyl)piperidine]", "5-HT14 receptor actuating activity (%)": 49}
